Measured values as given in patent publication US7402548B2, “Benzoxazole compounds, process for producing the same and herbicides” (Kyoyu Agri Co., Ltd., priority 2000, dated 2008).

Key:
[1] = system: bulrush; experiment: Herbicidal test for paddy field; format: in vivo, Scrips juncoides; settings: 500 g/ha, dropwise addition to paddy water at 1.5 leaf stage of barnyard grass; glass house 25° C., 3 weeks; rank 0-5 vs non-treated district
Procedure: (§1) Wagner pots, each having an area of 1/5000 are, were packed with Ube soil (alluvial soil) and planted with seeds or tubers of young rice plant, barnyard grass, bulrush, Cyperus serotinus Rottb., arrowhead and monochoria. Then, the pots were filled with water to a depth of 3 cm.
(§2) Each wettable powder of the desired Compounds (I) shown in Tables 1 to 21, 24, 25, 28 and 29 prepared in accordance with Example 2 was diluted with water containing a surfactant (0.05%) and subjected to dropwise addition treatment by using pipet so that an effective concentration of the compound (I) in each herbicide became 500 g/ha at 1.5 leaf stage of barnyard grass.
(§3) These plants were controlled in a glass house at an average temperature of 25° C. for 3 weeks, and then herbicidal effects thereof were investigated.
(§4) The herbicidal effects are evaluated according to the following 6 ranks as compared with non-treated district. (0: normal development, 1: Less damaged, 2: Slightly damaged, 3: Moderately damaged, 4: Severely damaged, 5: All killed). Incidentally, “-” in the column means not investigated.

[2] = system: Large crabgrass; experiment: Soil treatment test for upland field; format: in vivo, Digitaria adscendens; parameters: key: 0 = normal development, 5 = all killed; settings: 500 g/ha, 3 weeks, glass house 25° C.
Method in brief: (§5)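 Using a pre-emergence soil application at 500 g/ha, treated pots were held 3 weeks in a glass house averaging 25° C. Injury was graded on a 0–5 scale against non-treated pots; "-" marks entries not investigated.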

[3] = system: livid amaranth; experiment: Foliar spread test for upland field; format: in vivo, Amaranthus lividus; parameters: key: 0 = normal development, 5 = all killed (6 ranks vs. untreated); settings: foliar spray, 500 ppm, 3 weeks, glass house 25° C.
Method in brief: (§6)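 Seeds were sown in volcanic ash soil in Wagner pots and grown about 2 weeks in a glass house at an average 25° C. Wettable-powder formulations diluted to 500 ppm in water with 0.5% surfactant were sprayed uniformly over the plants. After 3 further weeks at 25° C, damage was scored 0 (normal) to 5 (all killed) against untreated plants.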

[4] = system: barnyard grass; experiment: Soil treatment test for upland field; format: in vivo, Eschinochloa crusgalli; parameters: key: 0 = normal development, 5 = all killed; settings: 500 g/ha, 3 weeks, glass house 25° C.
Method in brief: as §5

[5] = system: corn; experiment: Foliar spread test for upland field; format: in vivo; parameters: key: 0 = normal development, 5 = all killed (6 ranks vs. untreated); settings: foliar spray, 500 ppm, 3 weeks, glass house 25° C.
Method in brief: as §6

[6] = system: solgum; experiment: Foliar spread test for upland field; format: in vivo; parameters: key: 0 = normal development, 5 = all killed (6 ranks vs. untreated); settings: foliar spray, 500 ppm, 3 weeks, glass house 25° C.
Method in brief: as §6

[7] = system: cotton; experiment: Foliar spread test for upland field; format: in vivo; parameters: key: 0 = normal development, 5 = all killed (6 ranks vs. untreated); settings: foliar spray, 500 ppm, 3 weeks, glass house 25° C.
Method in brief: as §6

[8] = system: sugar beat; experiment: Foliar spread test for upland field; format: in vivo; parameters: key: 0 = normal development, 5 = all killed (6 ranks vs. untreated); settings: foliar spray, 500 ppm, 3 weeks, glass house 25° C.
Method in brief: as §6

[9] = system: soybean; experiment: Foliar spread test for upland field; format: in vivo; parameters: key: 0 = normal development, 5 = all killed (6 ranks vs. untreated); settings: foliar spray, 500 ppm, 3 weeks, glass house 25° C.
Method in brief: as §6

[10] = system: wheat; experiment: Foliar spread test for upland field; format: in vivo; parameters: key: 0 = normal development, 5 = all killed (6 ranks vs. untreated); settings: foliar spray, 500 ppm, 3 weeks, glass house 25° C.
Method in brief: as §6

[11] = system: common lambsquarters; experiment: Foliar spread test for upland field; format: in vivo, Chenopodium album; parameters: key: 0 = normal development, 5 = all killed (6 ranks vs. untreated); settings: foliar spray, 500 ppm, 3 weeks, glass house 25° C.
Method in brief: as §6

[12] = system: common lambsquarters; experiment: Soil treatment test for upland field; format: in vivo, Chenopodium album; parameters: key: 0 = normal development, 5 = all killed; settings: 500 g/ha, 3 weeks, glass house 25° C.
Method in brief: as §5

[13] = system: blackgrass; experiment: Soil treatment test for upland field; format: in vivo, Alopecurus aegualis; parameters: key: 0 = normal development, 5 = all killed; settings: 500 g/ha, 3 weeks, glass house 25° C.
Method in brief: as §5

[14] = system: green foxtail; experiment: Soil treatment test for upland field; format: in vivo, Setaria viridis; parameters: key: 0 = normal development, 5 = all killed; settings: 500 g/ha, 3 weeks, glass house 25° C.
Method in brief: as §5

[15] = system: barnyard grass; experiment: Herbicidal test for paddy field; format: in vivo, Eschinochloa crusgalli; settings: 500 g/ha, dropwise addition to paddy water at 1.5 leaf stage of barnyard grass; glass house 25° C., 3 weeks; rank 0-5 vs non-treated district
Procedure: as §1, §2, §3, §4

[16] = system: barnyardgrjass; experiment: Foliar spread test for upland field; format: in vivo, Eschinochloa crusgalli; parameters: key: 0 = normal development, 5 = all killed (6 ranks vs. untreated); settings: foliar spray, 500 ppm, 3 weeks, glass house 25° C.
Method in brief: as §6

[17] = system: morning glory; experiment: Foliar spread test for upland field; format: in vivo, Ipomoea spps.; parameters: key: 0 = normal development, 5 = all killed (6 ranks vs. untreated); settings: foliar spray, 500 ppm, 3 weeks, glass house 25° C.
Method in brief: as §6

[18] = system: morning glory; experiment: Soil treatment test for upland field; format: in vivo, Ipomoea spps.; parameters: key: 0 = normal development, 5 = all killed; settings: 500 g/ha, 3 weeks, glass house 25° C.
Method in brief: as §5

[19] = system: corn; experiment: Soil treatment test for upland field; format: in vivo; parameters: key: 0 = normal development, 5 = all killed; settings: 500 g/ha, 3 weeks, glass house 25° C.
Method in brief: as §5

[20] = system: solgum; experiment: Soil treatment test for upland field; format: in vivo; parameters: key: 0 = normal development, 5 = all killed; settings: 500 g/ha, 3 weeks, glass house 25° C.
Method in brief: as §5

[21] = system: sugar beat; experiment: Soil treatment test for upland field; format: in vivo; parameters: key: 0 = normal development, 5 = all killed; settings: 500 g/ha, 3 weeks, glass house 25° C.
Method in brief: as §5

[22] = system: soybean; experiment: Soil treatment test for upland field; format: in vivo; parameters: key: 0 = normal development, 5 = all killed; settings: 500 g/ha, 3 weeks, glass house 25° C.
Method in brief: as §5

[23] = system: wheat; experiment: Soil treatment test for upland field; format: in vivo; parameters: key: 0 = normal development, 5 = all killed; settings: 500 g/ha, 3 weeks, glass house 25° C.
Method in brief: as §5

[24] = system: blackgrass; experiment: Foliar spread test for upland field; format: in vivo, Alopecurus aegualis; parameters: key: 0 = normal development, 5 = all killed (6 ranks vs. untreated); settings: foliar spray, 500 ppm, 3 weeks, glass house 25° C.
Method in brief: as §6

[25] = system: Cyperus serotinus Rottb.; experiment: Herbicidal test for paddy field; format: in vivo; settings: 500 g/ha, dropwise addition to paddy water at 1.5 leaf stage of barnyard grass; glass house 25° C., 3 weeks; rank 0-5 vs non-treated district
Procedure: as §1, §2, §3, §4

[26] = system: velvetleaf; experiment: Foliar spread test for upland field; format: in vivo, Abutilon theophrasti; parameters: key: 0 = normal development, 5 = all killed (6 ranks vs. untreated); settings: foliar spray, 500 ppm, 3 weeks, glass house 25° C.
Method in brief: as §6

[27] = system: Large crabgrass; experiment: Foliar spread test for upland field; format: in vivo, Digitaria adscendens; parameters: key: 0 = normal development, 5 = all killed (6 ranks vs. untreated); settings: foliar spray, 500 ppm, 3 weeks, glass house 25° C.
Method in brief: as §6

[28] = system: velvetleaf; experiment: Soil treatment test for upland field; format: in vivo, Abutilon theophrasti; parameters: key: 0 = normal development, 5 = all killed; settings: 500 g/ha, 3 weeks, glass house 25° C.
Method in brief: as §5

[29] = system: annual bluegrass; experiment: Soil treatment test for upland field; format: in vivo, Poa annua; parameters: key: 0 = normal development, 5 = all killed; settings: 500 g/ha, 3 weeks, glass house 25° C.
Method in brief: as §5

[30] = system: annual bluegrass; experiment: Foliar spread test for upland field; format: in vivo, Poa annua; parameters: key: 0 = normal development, 5 = all killed (6 ranks vs. untreated); settings: foliar spray, 500 ppm, 3 weeks, glass house 25° C.
Method in brief: as §6

[31] = system: livid amaranth; experiment: Soil treatment test for upland field; format: in vivo, Amaranthus lividus; parameters: key: 0 = normal development, 5 = all killed; settings: 500 g/ha, 3 weeks, glass house 25° C.
Method in brief: as §5

[32] = system: green foxtail; experiment: Foliar spread test for upland field; format: in vivo, Setaria viridis; parameters: key: 0 = normal development, 5 = all killed (6 ranks vs. untreated); settings: foliar spray, 500 ppm, 3 weeks, glass house 25° C.
Method in brief: as §6

Structure (SMILES) | Effects Bulrush [1] | Effects Large crabgrass [2] | Effects Livid amaranth [3] | Effects Barnyardgrass [4] | Effects Corn [5] | Effects Solgum [6] | Effects Sotton [7] | Effects Sugar beat [8] | Effects Soybean [9] | Effects Wheat [10] | Effects Common lambsquarters [11] | Effects Common lambsquarters [12] | Effects Blackgrass [13] | Effects Green foxtail [14] | Effects Barnyardgrass [15] | Effects Barnyardgrass [16] | Effects Morning glory [17] | Effects Morning glory [18] | Effects Corn [19] | Effects Solgum [20] | also measured
CCCC(=Cc1cccc(C(F)(F)F)c1)c1nc2cc(C#N)c(F)cc2o1 [I-c-139] | 3 | 5 | 5 | 5 | 2 | 2 | 4 | 4 | 5 | 2 | 5 | 5 | 5 | 5 | 4 | 3 | 5 | 5 | 2 | 3 | Effects Sugar beat [21]: 5; Effects Soybean [22]: 5; Effects Wheat [23]: 2; Effects Blackgrass [24]: 4; Effects Cyperus serotinus Rottb. [25]: 1; Effects Velvetleaf [26]: 4; Effects Large crabgrass [27]: 4; Effects Velvetleaf [28]: 5; Effects Annual bluegrass [29]: 5; Effects Annual bluegrass [30]: 4; Effects Livid amaranth [31]: 5; Effects Green foxtail [32]: 4
FC(F)(F)c1cccc(C=Cc2nc3ccccc3o2)c1 [I-c-1] | 3 | 5 | 4 | 5 | 2 | 1 | 2 | 3 | 5 | 1 | 3 | 5 | 5 | 5 | 3 | 1 | 5 | 1 | 1 | 1 | Effects Wheat [23]: 0; Effects Blackgrass [24]: 1; Effects Cyperus serotinus Rottb. [25]: 3; Effects Velvetleaf [26]: 2; Effects Large crabgrass [27]: 3; Effects Annual bluegrass [29]: 5; Effects Annual bluegrass [30]: 1; Effects Livid amaranth [31]: 5; Effects Green foxtail [32]: 3
CCCC(=Cc1cccc(C(F)(F)F)c1)c1nc2cc(C#N)c(Cl)cc2o1 [I-c-145] | 3 | 5 | 5 | 4 | 2 | 2 | 4 | 3 | 5 | 2 | 5 | 5 | 5 | 5 | 4 | 2 | 5 | 5 | 0 | 1 | Effects Sugar beat [21]: 5; Effects Soybean [22]: 0; Effects Wheat [23]: 1; Effects Blackgrass [24]: 2; Effects Velvetleaf [26]: 3; Effects Large crabgrass [27]: 3; Effects Velvetleaf [28]: 5; Effects Annual bluegrass [29]: 5; Effects Annual bluegrass [30]: 3; Effects Livid amaranth [31]: 5; Effects Green foxtail [32]: 5
